Results: PMC11928584, “H105A peptide eye drops promote photoreceptor survival in murine and human models of retinal degeneration” (Communications Medicine, 2025)
Where a SMILES comes first, the peptide text is derived from it.

System: human iPSC-derived retinal organoids exposed to CSE
Experiment: Ethidium homodimer staining of live retinal organoids (3D-ARQ)
Assay type: cell-based
Conditions: D180 ROs, 24 h, mean ± SD, n=14
Method: Human iPSCs were differentiated into retinal organoids (ROs) following the protocol by Zhong et al.[41]. Briefly, on Day 0, hiPSC colonies were dissociated with dispase and grown in a suspension to form embryoid bodies, and slowly transitioned to neural induction media (DMEM/F12 (1:1), 1% N2 supplement (Invitrogen), 1 x minimum essential media-nonessential amino acids (NEAAs), 2 µg/ml heparin (Sigma)). On Day 7, EBs were seeded on Matrigel coated plates and maintained in neural induction media. On Day 16, the media was switched to the retinal differentiation medium (DMEM/F12 (3:1), 2% B27 (without vitamin A, Invitrogen), 1x NEAA and 1% antibiotic–antimycotic (Gibco)). Retinal domains were identified and lifted manually with tungsten needles between Day 21 and Day 26 under a phase contrast microscope. On day 30, the culture medium was transitioned to DMEM/F12 (3:1) with 2% B27, 1x NEAA, 1% antibiotic–antimycotic, 10% fetal bovine serum (FBS; Gibco), […] Taurine (Sigma), and 2 mM GlutaMAX (Invitrogen). Additionally, 1 µM retinoic acid supplement was introduced daily starting from day 63. […]
After treatment, ROs were washed in PBS (Gibco, 14190-144) and the auto-fluorescent background was measured by 3D-automated reporter quantification (3D-ARQ)[42], using a Tecan Spark Plate reader (SparkControl v2.3). The Z-position was determined manually by selecting the individual well and fluorescent intensity was measured using the optimized parameters below. […] After incubation, ROs were washed three times with PBS, and fluorescence intensity was measured by 3D-ARQ using the following parameters: Mode: Fluorescent top reading; Wavelength for PSVue-794: Excitation: Emission 730:820 nm, Excitation bandwidth: 10 nm, Emission bandwidth: 15 nm; Wavelength for Ethidium Homodimer: Excitation: Emission 530:630 nm, Excitation bandwidth: 5 nm, Emission bandwidth: 5 nm; Gain: 160, Manual; Number of flashes: 20; integration time: 40 µs; lag time 0 µs. […] Results were analysed after background subtraction; n = 19-24 ROs per condition. […]

CC[C@H](C)[C@H](NC(=O)[C@H](CC(C)C)NC(=O)[C@H](CC(=O)O)NC(=O)[C@H](Cc1ccc(O)cc1)NC(=O)[C@H](Cc1ccc(O)cc1)NC(=O)[C@H](CC(C)C)NC(=O)[C@H](C)NC(=O)[C@H](CCCNC(=N)N)NC(=O)[C@H](C)NC(=O)[C@@H](NC(=O)[C@@H](NC(=O)[C@H](CO)NC(=O)[C@H](CCC(=O)O)NC(=O)[C@@H](NC(=O)[C@H](CCCNC(=N)N)NC(=O)[C@@H](N)CCC(N)=O)[C@@H](C)O)[C@@H](C)CC)[C@@H](C)CC)C(=O)N[C@@H](CO)C(=O)O [H105A] (H-QRTESIIARALYYDLIS-OH)
Fluorescence intensity of Ethidium homodimer (CSE 500 µg/ml + peptide 1 nM): 848.9 ± 51.0 RFU
Fluorescence intensity of Ethidium homodimer (CSE 500 µg/ml + peptide 20 nM): 919.2 ± 46.0 RFU

CC[C@H](C)[C@H](NC(=O)[C@H](CC(C)C)NC(=O)[C@H](CC(=O)O)NC(=O)[C@H](Cc1ccc(O)cc1)NC(=O)[C@H](Cc1ccc(O)cc1)NC(=O)[C@H](CC(C)C)NC(=O)[C@H](C)NC(=O)[C@H](CCCNC(=N)N)NC(=O)[C@H](Cc1c[nH]cn1)NC(=O)[C@@H](NC(=O)[C@@H](NC(=O)[C@H](CO)NC(=O)[C@H](CCC(=O)O)NC(=O)[C@@H](NC(=O)[C@H](C)NC(=O)[C@@H](N)CCC(N)=O)[C@@H](C)O)[C@@H](C)CC)[C@@H](C)CC)C(=O)N[C@@H](CO)C(=O)O [R99A] (H-QATESIIHRALYYDLIS-OH)
Fluorescence intensity of Ethidium homodimer (CSE 500 µg/ml + peptide 20 nM): 1283.2 ± 67.6 RFU
